Measured values taken from patent US10844077B2, “Thiazolyl-containing compounds for treating proliferative diseases” (Dana-Farber Cancer Institute, Inc., priority 2014, dated 2020).
Where two headings read alike, the source gives them in different places.

Columns and labels:
Assay type in all cases: binding
[1] = molecular target: broad panel of kinases (Homo sapiens, UniProt P08581, M1250T); conditions: MET(M1250T); 1 μM
[2] = molecular target: broad panel of kinases (Homo sapiens, UniProt P50613); conditions: CDK7; 1 μM
[3] = molecular target: broad panel of kinases (Homo sapiens, UniProt P36897); conditions: TGFBR1; 1 μM
[4] = molecular target: broad panel of kinases (Homo sapiens, UniProt Q9BXA7); conditions: TSSK1B; 1 μM
[5] = molecular target: broad panel of kinases (Homo sapiens, UniProt Q5VT25); conditions: MRCKA; 1 μM
[6] = molecular target: broad panel of kinases (Homo sapiens, UniProt P42336, H1047Y); conditions: PIK3CA(H1047Y); 1 μM
[7] = molecular target: broad panel of kinases (Homo sapiens, UniProt P42336, E545K); conditions: PIK3CA(E545K); 1 μM
[8] = molecular target: broad panel of kinases (Homo sapiens, UniProt P00533, G719S); conditions: EGFR(G719S); 1 μM
[9] = molecular target: broad panel of kinases (Homo sapiens, UniProt Q9Y6M4); conditions: CSNK1G3; 1 μM
[10] = molecular target: broad panel of kinases (Homo sapiens, UniProt P53779); conditions: JNK3; 1 μM
[11] = molecular target: broad panel of kinases (Homo sapiens, UniProt Q07912); conditions: TNK2; 1 μM
[12] = molecular target: broad panel of kinases (Homo sapiens, UniProt Q8NI60); conditions: ADCK3; 1 μM
[13] = molecular target: broad panel of kinases (Homo sapiens, UniProt Q8WTQ7); conditions: GRK7; 1 μM
[14] = molecular target: broad panel of kinases (Homo sapiens, UniProt Q15746); conditions: MYLK; 1 μM
[15] = molecular target: broad panel of kinases (Homo sapiens, UniProt P48730); conditions: CSNK1D; 1 μM
[16] = molecular target: broad panel of kinases (Homo sapiens, UniProt P78362); conditions: SRPK2; 1 μM
[17] = molecular target: broad panel of kinases (Homo sapiens, UniProt O15264); conditions: p38-delta; 1 μM
[18] = molecular target: broad panel of kinases (Homo sapiens, UniProt P49674); conditions: CSNK1E; 1 μM
[19] = molecular target: broad panel of kinases (Homo sapiens, UniProt Q9H2K8); conditions: TAOK3; 1 μM
[20] = molecular target: broad panel of kinases (Homo sapiens, UniProt Q16659); conditions: ERK3; 1 μM
[21] = molecular target: broad panel of kinases (Homo sapiens, UniProt O94804); conditions: LOK; 1 μM
[22] = molecular target: broad panel of kinases (Homo sapiens, UniProt P29376); conditions: LTK; 1 μM
[23] = molecular target: broad panel of kinases (Homo sapiens, UniProt P07947); conditions: YES; 1 μM
[24] = molecular target: broad panel of kinases (Homo sapiens, UniProt O15111); conditions: IKK-alpha; 1 μM
[25] = molecular target: broad panel of kinases (Homo sapiens, UniProt P42684); conditions: ABL2; 1 μM
[26] = molecular target: broad panel of kinases (Homo sapiens, UniProt Q9Y616); conditions: IRAK3; 1 μM
[27] = molecular target: broad panel of kinases (Homo sapiens, UniProt P12931); conditions: SRC; 1 μM
[28] = molecular target: broad panel of kinases (Homo sapiens, UniProt Q14012); conditions: CAMK1; 1 μM
[29] = molecular target: broad panel of kinases (Homo sapiens, UniProt Q15759); conditions: p38-beta; 1 μM
[30] = molecular target: broad panel of kinases (Homo sapiens, UniProt P08069); conditions: IGF1R; 1 μM
[31] = molecular target: broad panel of kinases (Homo sapiens, UniProt P54760); conditions: EPHB4; 1 μM
[32] = molecular target: broad panel of kinases (Homo sapiens, UniProt Q15418); conditions: 1 μM
[33] = molecular target: broad panel of kinases (Homo sapiens, UniProt Q9BVS4); conditions: RIOK2; 1 μM
[34] = molecular target: broad panel of kinases (Homo sapiens, UniProt Q9NSY1); conditions: BIKE; 1 μM
[35] = molecular target: broad panel of kinases (Homo sapiens, UniProt P23458); conditions: 1 μM
[36] = molecular target: broad panel of kinases (Homo sapiens, UniProt Q9UF33); conditions: EPHA6; 1 μM
[37] = molecular target: broad panel of kinases (Homo sapiens, UniProt Q08881); conditions: ITK; 1 μM

Chain of broad panel of kinases (Homo sapiens, UniProt P54760) (P54760 16-987 limits assumed): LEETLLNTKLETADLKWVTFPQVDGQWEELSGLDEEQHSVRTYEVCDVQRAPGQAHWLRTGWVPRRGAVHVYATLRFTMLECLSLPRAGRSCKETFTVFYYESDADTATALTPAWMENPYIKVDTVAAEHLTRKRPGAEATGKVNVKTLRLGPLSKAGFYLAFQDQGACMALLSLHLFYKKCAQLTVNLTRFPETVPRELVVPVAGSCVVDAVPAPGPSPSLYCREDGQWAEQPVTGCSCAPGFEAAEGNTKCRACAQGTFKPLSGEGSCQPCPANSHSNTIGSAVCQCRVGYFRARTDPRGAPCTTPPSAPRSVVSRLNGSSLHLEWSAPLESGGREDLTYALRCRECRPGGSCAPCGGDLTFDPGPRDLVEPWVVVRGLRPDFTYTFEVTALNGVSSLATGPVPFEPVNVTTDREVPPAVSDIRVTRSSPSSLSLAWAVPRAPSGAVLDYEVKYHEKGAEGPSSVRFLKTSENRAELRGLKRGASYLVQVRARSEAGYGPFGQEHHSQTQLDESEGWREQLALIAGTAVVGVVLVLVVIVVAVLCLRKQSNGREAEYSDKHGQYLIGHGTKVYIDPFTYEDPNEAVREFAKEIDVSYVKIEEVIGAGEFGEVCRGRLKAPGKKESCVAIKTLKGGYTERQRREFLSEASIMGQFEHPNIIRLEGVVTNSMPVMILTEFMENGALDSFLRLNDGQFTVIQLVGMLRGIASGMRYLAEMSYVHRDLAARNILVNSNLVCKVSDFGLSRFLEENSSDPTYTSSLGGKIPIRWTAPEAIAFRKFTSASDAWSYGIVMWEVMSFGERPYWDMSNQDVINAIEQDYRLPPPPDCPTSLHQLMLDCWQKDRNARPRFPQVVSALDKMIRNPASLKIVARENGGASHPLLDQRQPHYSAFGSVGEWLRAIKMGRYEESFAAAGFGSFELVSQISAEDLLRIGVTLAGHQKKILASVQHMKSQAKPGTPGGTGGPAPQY
Chain of broad panel of kinases (Homo sapiens, UniProt P50613) (P50613 2-346 limits assumed): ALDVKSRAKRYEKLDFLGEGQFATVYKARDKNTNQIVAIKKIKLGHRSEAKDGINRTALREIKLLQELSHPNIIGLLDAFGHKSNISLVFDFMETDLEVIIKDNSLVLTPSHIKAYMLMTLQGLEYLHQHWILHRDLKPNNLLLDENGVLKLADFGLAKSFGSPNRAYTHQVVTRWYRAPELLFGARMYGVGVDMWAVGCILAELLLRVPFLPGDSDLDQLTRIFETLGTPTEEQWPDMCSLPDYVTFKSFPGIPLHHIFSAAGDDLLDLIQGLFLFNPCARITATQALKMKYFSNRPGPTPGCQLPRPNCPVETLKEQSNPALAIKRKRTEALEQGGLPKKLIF
Chain of broad panel of kinases (Homo sapiens, UniProt Q8NI60) (Q8NI60 163-647 limits assumed): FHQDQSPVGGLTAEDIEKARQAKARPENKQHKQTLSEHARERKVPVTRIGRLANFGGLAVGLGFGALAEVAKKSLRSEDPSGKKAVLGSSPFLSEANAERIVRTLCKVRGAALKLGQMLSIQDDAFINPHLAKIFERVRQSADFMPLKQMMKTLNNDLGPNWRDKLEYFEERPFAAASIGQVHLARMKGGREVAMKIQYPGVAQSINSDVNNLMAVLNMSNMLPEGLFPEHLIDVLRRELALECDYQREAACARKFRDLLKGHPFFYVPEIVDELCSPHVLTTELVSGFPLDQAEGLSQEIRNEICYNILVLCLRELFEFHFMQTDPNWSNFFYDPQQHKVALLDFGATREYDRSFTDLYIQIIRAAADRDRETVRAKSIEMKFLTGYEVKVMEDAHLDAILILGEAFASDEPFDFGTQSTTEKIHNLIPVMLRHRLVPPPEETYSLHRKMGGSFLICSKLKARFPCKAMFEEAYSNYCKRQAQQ
Chain of broad panel of kinases (Homo sapiens, UniProt Q9UF33) (Q9UF33 23-1036 limits assumed): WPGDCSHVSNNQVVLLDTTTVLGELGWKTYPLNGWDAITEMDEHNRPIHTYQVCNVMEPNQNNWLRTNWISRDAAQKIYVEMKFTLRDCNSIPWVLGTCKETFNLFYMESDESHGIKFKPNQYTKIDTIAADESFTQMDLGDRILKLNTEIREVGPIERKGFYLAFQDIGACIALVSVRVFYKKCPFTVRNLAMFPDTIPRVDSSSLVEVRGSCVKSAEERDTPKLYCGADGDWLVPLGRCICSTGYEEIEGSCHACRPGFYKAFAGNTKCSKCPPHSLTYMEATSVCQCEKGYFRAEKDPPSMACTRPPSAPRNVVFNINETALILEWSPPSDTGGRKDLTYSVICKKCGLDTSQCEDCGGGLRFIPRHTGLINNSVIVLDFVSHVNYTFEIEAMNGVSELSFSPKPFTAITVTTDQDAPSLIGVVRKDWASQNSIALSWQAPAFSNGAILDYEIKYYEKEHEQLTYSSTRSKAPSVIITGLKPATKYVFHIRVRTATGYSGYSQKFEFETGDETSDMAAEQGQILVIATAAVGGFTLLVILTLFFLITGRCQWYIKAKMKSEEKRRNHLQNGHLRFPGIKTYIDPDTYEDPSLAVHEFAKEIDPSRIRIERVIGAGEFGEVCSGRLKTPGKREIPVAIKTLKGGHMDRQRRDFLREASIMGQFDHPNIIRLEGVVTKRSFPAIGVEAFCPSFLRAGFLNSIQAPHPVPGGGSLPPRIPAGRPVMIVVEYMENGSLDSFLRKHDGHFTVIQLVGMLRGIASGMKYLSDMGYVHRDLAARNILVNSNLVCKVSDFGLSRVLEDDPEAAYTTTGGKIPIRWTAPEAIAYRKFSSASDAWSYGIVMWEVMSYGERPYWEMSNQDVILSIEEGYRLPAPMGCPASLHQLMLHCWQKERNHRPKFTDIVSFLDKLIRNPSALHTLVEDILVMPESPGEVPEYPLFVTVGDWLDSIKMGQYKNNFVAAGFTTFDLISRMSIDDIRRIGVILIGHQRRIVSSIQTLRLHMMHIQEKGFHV
Chain of broad panel of kinases (Homo sapiens, UniProt P00533, G719S) (P00533 25-1210 G719S limits assumed): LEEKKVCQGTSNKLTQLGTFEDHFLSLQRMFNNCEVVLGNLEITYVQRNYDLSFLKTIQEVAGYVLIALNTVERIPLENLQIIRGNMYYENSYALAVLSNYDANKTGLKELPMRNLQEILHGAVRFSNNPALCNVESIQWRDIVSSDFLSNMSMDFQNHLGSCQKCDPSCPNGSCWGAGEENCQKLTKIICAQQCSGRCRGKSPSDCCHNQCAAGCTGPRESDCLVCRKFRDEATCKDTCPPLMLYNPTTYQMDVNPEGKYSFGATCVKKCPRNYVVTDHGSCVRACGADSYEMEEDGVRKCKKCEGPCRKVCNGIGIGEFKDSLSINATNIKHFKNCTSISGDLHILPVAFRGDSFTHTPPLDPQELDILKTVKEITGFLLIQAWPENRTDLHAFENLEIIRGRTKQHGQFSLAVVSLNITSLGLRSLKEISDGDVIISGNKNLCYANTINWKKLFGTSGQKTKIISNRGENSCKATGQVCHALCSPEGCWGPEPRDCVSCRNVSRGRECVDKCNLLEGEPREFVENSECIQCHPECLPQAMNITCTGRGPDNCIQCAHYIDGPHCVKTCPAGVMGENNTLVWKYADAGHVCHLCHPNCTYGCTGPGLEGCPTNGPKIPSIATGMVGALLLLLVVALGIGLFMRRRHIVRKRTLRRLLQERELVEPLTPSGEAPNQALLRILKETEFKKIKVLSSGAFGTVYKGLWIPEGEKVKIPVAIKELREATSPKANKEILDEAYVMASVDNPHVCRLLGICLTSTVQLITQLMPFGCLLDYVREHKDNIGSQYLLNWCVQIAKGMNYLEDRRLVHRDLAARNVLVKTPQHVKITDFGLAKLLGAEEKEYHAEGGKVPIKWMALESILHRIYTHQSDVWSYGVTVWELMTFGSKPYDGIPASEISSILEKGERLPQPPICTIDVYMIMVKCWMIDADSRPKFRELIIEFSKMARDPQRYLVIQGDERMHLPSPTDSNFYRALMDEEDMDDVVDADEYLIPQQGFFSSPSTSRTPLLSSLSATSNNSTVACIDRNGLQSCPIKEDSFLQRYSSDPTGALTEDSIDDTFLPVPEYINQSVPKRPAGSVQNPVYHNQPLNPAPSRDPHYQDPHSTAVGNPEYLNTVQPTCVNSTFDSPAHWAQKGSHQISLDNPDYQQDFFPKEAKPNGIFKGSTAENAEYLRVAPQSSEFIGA
Chain of broad panel of kinases (Homo sapiens, UniProt P12931) (P12931 2-536 limits assumed): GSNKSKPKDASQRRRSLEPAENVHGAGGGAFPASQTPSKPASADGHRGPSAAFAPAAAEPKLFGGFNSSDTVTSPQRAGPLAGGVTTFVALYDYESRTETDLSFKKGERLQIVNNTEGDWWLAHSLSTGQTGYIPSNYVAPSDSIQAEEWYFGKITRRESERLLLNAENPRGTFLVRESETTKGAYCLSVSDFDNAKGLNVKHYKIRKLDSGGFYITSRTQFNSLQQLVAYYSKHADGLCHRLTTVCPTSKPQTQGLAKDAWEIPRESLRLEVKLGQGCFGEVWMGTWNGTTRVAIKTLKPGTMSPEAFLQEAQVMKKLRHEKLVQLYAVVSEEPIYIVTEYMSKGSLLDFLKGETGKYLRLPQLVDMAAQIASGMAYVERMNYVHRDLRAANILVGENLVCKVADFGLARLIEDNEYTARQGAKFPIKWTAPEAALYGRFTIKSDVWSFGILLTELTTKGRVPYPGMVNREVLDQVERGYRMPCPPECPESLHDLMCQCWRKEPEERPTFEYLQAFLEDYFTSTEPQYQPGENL
Chain of broad panel of kinases (Homo sapiens, UniProt P36897) (P36897 34-503 limits assumed): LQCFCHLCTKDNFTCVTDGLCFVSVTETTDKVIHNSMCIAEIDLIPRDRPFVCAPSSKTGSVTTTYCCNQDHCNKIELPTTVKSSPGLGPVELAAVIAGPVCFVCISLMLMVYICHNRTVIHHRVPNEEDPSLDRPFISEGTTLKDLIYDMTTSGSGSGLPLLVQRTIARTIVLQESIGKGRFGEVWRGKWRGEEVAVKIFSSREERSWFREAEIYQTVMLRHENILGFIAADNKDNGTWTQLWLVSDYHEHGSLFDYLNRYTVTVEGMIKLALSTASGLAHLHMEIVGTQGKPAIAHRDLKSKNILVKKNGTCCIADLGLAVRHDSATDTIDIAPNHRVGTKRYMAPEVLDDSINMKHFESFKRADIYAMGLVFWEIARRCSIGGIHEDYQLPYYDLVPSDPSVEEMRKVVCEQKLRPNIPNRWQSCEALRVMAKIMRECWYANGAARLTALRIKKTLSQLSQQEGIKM

Structure (SMILES)	percent of control binding remaining (lower = stronger binding) [1]	percent of control binding remaining (lower = stronger binding) [2]	percent of control binding remaining (lower = stronger binding) [3]	percent of control binding remaining (lower = stronger binding) [4]	percent of control binding remaining (lower = stronger binding) [5]	percent of control binding remaining (lower = stronger binding) [6]	percent of control binding remaining (lower = stronger binding) [7]	percent of control binding remaining (lower = stronger binding) [8]	percent of control binding remaining (lower = stronger binding) [9]	percent of control binding remaining (lower = stronger binding) [10]	percent of control binding remaining (lower = stronger binding) [11]	percent of control binding remaining (lower = stronger binding) [12]	percent of control binding remaining (lower = stronger binding) [13]	percent of control binding remaining (lower = stronger binding) [14]	percent of control binding remaining (lower = stronger binding) [15]	percent of control binding remaining (lower = stronger binding) [16]	percent of control binding remaining (lower = stronger binding) [17]	percent of control binding remaining (lower = stronger binding) [18]	percent of control binding remaining (lower = stronger binding) [19]	percent of control binding remaining (lower = stronger binding) [20]	also measured
C=CC(=O)N1CC[C@H](Nc2nc(CN3CCOCC3)cc(Nc3ncc(C(=O)Nc4c(C)cccc4C)s3)n2)C1 [Example I-2]	100%	94%	50%	73%	65%	100%	94%	17%	96%	97%	31%	9.2%	97%	85%	100%	92%	100%	84%	81%	100%	percent of control binding remaining (lower = stronger binding) [21]: 96%; percent of control binding remaining (lower = stronger binding) [22]: 100%; percent of control binding remaining (lower = stronger binding) [23]: 0%; percent of control binding remaining (lower = stronger binding) [24]: 93%; percent of control binding remaining (lower = stronger binding) [25]: 0.3%; percent of control binding remaining (lower = stronger binding) [26]: 93%; percent of control binding remaining (lower = stronger binding) [27]: 0%; percent of control binding remaining (lower = stronger binding) [28]: 91%; percent of control binding remaining (lower = stronger binding) [29]: 62%; percent of control binding remaining (lower = stronger binding) [30]: 100%; percent of control binding remaining (lower = stronger binding) [31]: 0%; percent of control binding remaining (lower = stronger binding) ([32]; RSK1(Kin.Dom.1-N-terminal)): 73%; percent of control binding remaining (lower = stronger binding) ([32]; RSK1(Kin.Dom.2-C-terminal)): 100%; percent of control binding remaining (lower = stronger binding) [33]: 92%; percent of control binding remaining (lower = stronger binding) [34]: 100%; percent of control binding remaining (lower = stronger binding) ([35]; JAK1(JH1domain-catalytic)): 100%; percent of control binding remaining (lower = stronger binding) ([35]; JAK1(JH2domain-pseudokinase)): 100%; percent of control binding remaining (lower = stronger binding) [36]: 100%; percent of control binding remaining (lower = stronger binding) [37]: 100%
C=CC(=O)N1CC[C@H](Nc2nccc(Nc3ncc(C(=O)Nc4c(C)cccc4C)s3)n2)C1 [Example I-3]	100%	94%	97%	100%	88%	96%	100%	7.6%	95%	91%	43%	49%	96%	93%	99%	64%	100%	96%	91%	89%	percent of control binding remaining (lower = stronger binding) [21]: 97%; percent of control binding remaining (lower = stronger binding) [22]: 100%; percent of control binding remaining (lower = stronger binding) [23]: 0%; percent of control binding remaining (lower = stronger binding) [24]: 100%; percent of control binding remaining (lower = stronger binding) [25]: 0.25%; percent of control binding remaining (lower = stronger binding) [26]: 93%; percent of control binding remaining (lower = stronger binding) [27]: 0%; percent of control binding remaining (lower = stronger binding) [28]: 63%; percent of control binding remaining (lower = stronger binding) [29]: 63%; percent of control binding remaining (lower = stronger binding) [30]: 100%; percent of control binding remaining (lower = stronger binding) [31]: 0%; percent of control binding remaining (lower = stronger binding) ([32]; RSK1(Kin.Dom.1-N-terminal)): 91%; percent of control binding remaining (lower = stronger binding) ([32]; RSK1(Kin.Dom.2-C-terminal)): 100%; percent of control binding remaining (lower = stronger binding) [33]: 77%; percent of control binding remaining (lower = stronger binding) [34]: 90%; percent of control binding remaining (lower = stronger binding) ([35]; JAK1(JH1domain-catalytic)): 100%; percent of control binding remaining (lower = stronger binding) ([35]; JAK1(JH2domain-pseudokinase)): 100%; percent of control binding remaining (lower = stronger binding) [36]: 100%; percent of control binding remaining (lower = stronger binding) [37]: 98%
